{"source": "patent US20140162308A1", "about": "“DEVICE AND METHOD FOR I[…] AND COUNTING MICROBES AND DETERMINING ANTIMICROBIAL SENSITIVITY” (Texas State University, priority 2011, published 2014)", "system": "E. Coli B", "test": "Antimicrobial sensitivity test: resistance signature of the microbial sample after adding the antibiotic", "assay_type": "cell-based", "settings": "0.9 mL of 10^3 CFU/mL E. Coli B in LB Broth + 0.1 mL antibiotic, room temperature; slope of control samples remains negative; FIGS. 7A-7D", "experimental": "FIGS. 7A-7D depict signatures of microbial sample of 0.9 mL of a concentration of 10^3 CFU/mL of two-hour E. Coli B treated with 0.1 mL of antibiotics or antimicrobials and control samples in the absence thereof. What is common to all FIGS. 7A-7D is the slope for signatures with antibiotics or antimicrobials become positive, i.e., the resistance component of total impedance of the microbial sample increases, upon addition of the antibiotic or antimicrobial. The slope of the control samples remains negative.\nIn further detail, a difference in the degree of the slope change for the signature can be observed. […]\nAn overnight bacterial culture of E. coli B with a concentration of around 10^9 cells which had attained room temperature were diluted using LB Broth which had also attained room temperature to a final concentration of 10^3 cells. 0.9 ml of this solution was then placed into one sensor well which was connected to lead #1 of a reader unit. An additional 0.9 ml of the bacteria was placed into a second sensor well which was connected to lead#2 of a reader unit. […]\nAn overnight bacterial culture of E. coli B with a concentration of around 10^9 cells that had attained room temperature were diluted to a final concentration of 10^3 cells. 0.9 ml of this solution was then placed into a first sensor well which was connected to lead #1 of a reader unit. […]"}
{"smiles": "Cc1cc(NS(=O)(=O)c2ccc(N)cc2)no1", "note": "[sulfamethoxazole]", "values": [{"measurement": "slope of the signature (resistance component of total impedance of the microbial sample) upon addition of the antibiotic or antimicrobial", "result": "steeper than for azithromycin"}]}
